Active and inactive are the calls of the source. No cut-off for these calls is given here.
Key:
[1] = target: T1, Phenylethanolamine N-methyltransferase (Homo sapiens) (UniProt P11086); experiment: Inhibition of human recombinant PNMT using AdoMet and DL-norepinephrine hydrocloride as substrate preincubated for 30 mins followed by substrate addition and measured after 30 mins by fluorescence based analysis relative to control; settings: time 1.0 hrs
T1 sequence (whole entry): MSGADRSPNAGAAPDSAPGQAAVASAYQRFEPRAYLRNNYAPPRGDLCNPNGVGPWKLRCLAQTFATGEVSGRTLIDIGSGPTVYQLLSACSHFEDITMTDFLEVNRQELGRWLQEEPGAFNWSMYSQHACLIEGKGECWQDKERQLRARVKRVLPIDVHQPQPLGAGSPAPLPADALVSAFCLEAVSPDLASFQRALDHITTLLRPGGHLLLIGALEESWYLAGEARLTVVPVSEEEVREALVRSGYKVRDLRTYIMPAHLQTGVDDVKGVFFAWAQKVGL

Rattus norvegicus [2] = experiment: In vivo inhibition of PNMT in Sprague-Dawley rat assessed as increase in norepinephrine level in adrenal gland at 1 mg, sc administered once daily for 20 days and measured after 24 hrs post last dose by liquid chromatography tandem mass spectrometry analysis; format: functional, organism-based; settings: time 20.0 day
Rattus norvegicus [3] = experiment: In vivo inhibition of PNMT in Sprague-Dawley rat assessed as decrease in epinephrine level in adrenal gland at 1 mg, sc once daily treated for 20 days and measured after 24 hrs post last dose by liquid chromatography tandem mass spectrometry analysis; format: functional, organism-based; settings: time 20.0 day
Rattus norvegicus [4] = experiment: Effect on PNMT protein expression level in Sprague-Dawley rat at 1 mg, sc once daily treated for 20 days and measured after 24 hrs post last dose by western blot analysis; format: functional, organism-based; settings: time 20.0 day

Structure (SMILES)	inhibition [1]	Activity (Rattus norvegicus [2])	Activity (Rattus norvegicus [3])	Activity (Rattus norvegicus [4])
CC(C)(C)NC(=O)[C@H]1CC[C@H]2[C@@H]3CC[C@H]4NC(=O)C=C[C@]4(C)[C@H]3CC[C@]12C	> 30%	Active	Active	inactive
CC(N)c1cccc(Cl)c1Cl (stereo not given)	60%			

From ChEMBL document CHEMBL5029141, “Three-Dimensional Proteome-Wide Scale Screening for the 5-Alpha Reductase Inhibitor Finasteride: Identification of a Novel Off-Target” (J Med Chem, 2021)
